# Laboratory results published in US7943600B2, “Antimicrobial combination therapy” (priority 2004, dated 2011).
# How the values were obtained:
# Format in all cases: cell-based, E. coli
# [1] = test system: GM7330 fpg::amp; assay: Survival curves after cisplatin treatment; details: presence or absence of ampicillin in growth medium
# Method: (§1) MacConkey agar and LB broth were purchased from Difco. LB broth contained 10 g tryptone, 5 g yeast extract, and 10 g NaCl per 1 L. All antibiotics and cisplatin (cis-diammine-dichloro-platinum(II), or CDDP) were purchased from Sigma-Aldrich. Antibiotics were used at the following final concentrations: 15 μg/ml tetracycline (Tc), 100 μg/ml ampicillin, 50 μg/ml kanamycin, 100 μg/ml streptomycin, 30 μg/ml nalidixic acid and 20 μg/ml chloramphenicol. Cisplatin solutions were prepared by dissolution in phosphate buffered saline (PBS) at 37° C. for one hour with rotation, filtering the solution through a 0.2 μm Acrodisc filter, and determining the concentration by UV absorbance at A301 using a Beckmann DU-65 spectrophotometer. Appropriate doses of cisplatin were then prepared by dilution in PBS.
# (§2) Cells were grown overnight from single colonies in LB broth. The next morning, saturated overnight cultures were diluted 1:100 and grown for two hours to mid-log phase (cell density approximately 3×10^8 cells/ml). At this time, the cells were spun down, resuspended in M9 minimal salts, and treated with various concentrations of cisplatin at 37° C. for 1 hour. Exposure to cisplatin was stopped by dilution of the cells 1:100 in M9 salts. Appropriate serial dilutions were prepared for each dose and plated on LB plates or LB/Tet plates. Colonies were counted the next day after incubation at 37° C. Survival was calculated as a percentage of cells forming colonies in treated populations relative to untreated.
# [2] = test system: CC104 mutY::cam; assay: Survival curves after cisplatin treatment; details: presence or absence of chloramphenicol in growth medium
# Method: as §1, §2
# [3] = test system: MG1655/pBR322; assay: Survival curves after cisplatin treatment
# Method: (§3) Strains carrying the pBR322 plasmid were created using a standard transformation by electroporation protocol. Briefly, cells were grown to mid-log phase, spun down, and washed 3 times in ice-cold sterile water. Cells were then resuspended in the final volume of 100 μl of ice-cold sterile water, and 10 μg pBR322 (New England BioLabs) was added. The BTX electroporation system, ElectroCell Manipulator 600, was used to deliver the pulse. After the pulse, cells were immediately resuspended in 1 ml of LB broth. Appropriate dilutions of cells were prepared in M9 minimal salts, plated on LB-ampicillin plates, and allowed to form colonies overnight.
# as §1, §2
# [4] = test system: AB1157/pBR322; assay: Survival curves after cisplatin treatment; details: grown with tetracycline prior to cisplatin treatment
# Method: as §3, §1, §2
# [5] = test system: CC104/pBR322; assay: Survival curves after cisplatin treatment; details: grown with tetracycline prior to cisplatin treatment
# Method: as §3, §1, §2
# [6] = test system: AB1157 mutS::tet; assay: Survival curves after cisplatin treatment
# Method: as §1, §2
# [7] = test system: GM7330 fpg::tet; assay: Survival curves after cisplatin treatment
# Method: as §1, §2
# [8] = test system: CC104 mutY::tet; assay: Survival curves after cisplatin treatment
# Method: as §1, §2
# [9] = test system: MG1655/F′Tn10; assay: Survival curves (colony formation) after cisplatin treatment
# Method: Strain GM4292 was constructed by mating exponentially growing XL1-Blue (Stratagene) with MG1655 (both at 1-2×10^8/ml at a 1:1 ratio) for 60 min and plating dilutions of the mixture on MacConkey agar-tetracycline plates. A red tetracycline-resistant, nalidixic acid-sensitive colony was selected, purified and designated GM4292. Strain GM4293 was constructed by introducing F′42 (F′lac^+) from AB 1874 into KM81 by conjugation as described above and selecting for Lac^+ Str^R colonies. A purified Lac^+ Str^R recombinant overnight culture was diluted and plated on MacConkey agar-kanamycin and following incubation overnight at 37° C., white colonies were selected. White colonies can arise either by gene conversion, where the lac^+ allele on the F′42 plasmid is converted to lacZ::Kan, or by loss of the F′lac^+. The white colonies were tested for their ability to transfer kanamycin-resistance at high frequency to MG1655, indicating retention of the F′ plasmid. One of these MG1655 recipients was designated GM4293.
# as §1
# as §2, with “At this time, the cells were spun down, resuspended in M9 minimal salts, and treated with various concentrations of cisplatin at 37° C. for 1 hour.” left out
# [10] = grown without tetracycline, treated with cisplatin alone
# [11] = grown without tetracycline, treated with cisplatin in the presence of tetracycline
# [12] = pre-treated and co-treated with tetracycline vs pre-treated only, cisplatin
# [13] = tetracycline absent from growth medium
compound,measurement,setting,value
CC1(C)S[C@@H]2[C@H](NC(=O)[C@H](N)c3ccccc3)C(=O)N2[C@H]1C(=O)O [ampicillin],effect of antibiotic in growth medium on survival upon cisplatin treatment,[1],did not produce the same degree of sensitization to cisplatin
O=C(N[C@H](CO)[C@H](O)c1ccc([N+](=O)[O-])cc1)C(Cl)Cl [chloramphenicol],effect of antibiotic in growth medium on survival upon cisplatin treatment,[2],did not produce the same degree of sensitization to cisplatin
"N.N.[Cl][Pt][Cl] [cisplatin, cis-diammine-dichloro-platinum(II)]",sensitization to cisplatin,[3]; grown with tetracycline prior to cisplatin treatment,did not produce similar sensitization to cisplatin
same,sensitivity to cisplatin,[3]; [10],equally sensitive to cisplatin as MG1655 cells not carrying any tet genes
same,survival,[3]; [11],their survival decreased
same,additional decrease in survival,[3]; [12],100 fold
same,sensitization to cisplatin,[4],did not produce similar sensitization to cisplatin
same,sensitization to cisplatin,[5],did not produce similar sensitization to cisplatin
same,survival upon treatment with cisplatin,[6]; grown with tetracycline,dramatically decreased
same,survival upon treatment with cisplatin,[6]; [13],not different from respective wild-types
same,survival upon treatment with cisplatin,[7]; grown with tetracycline,dramatically decreased
same,survival upon treatment with cisplatin,[7]; [13],not different from respective wild-types
same,survival upon treatment with cisplatin,[8]; grown with tetracycline,dramatically decreased
same,survival upon treatment with cisplatin,[8]; [13],not different from respective wild-types
same,sensitivity to cisplatin,"[9]; 4 hours, 10-fold lower cisplatin doses, co-treated with tetracycline only",more sensitive to cisplatin than wild-type
same,survival,"[9]; 4 hours, 10-fold lower cisplatin doses, neither pre-treated nor co-treated with tetracycline",not different from survival of wild-type cells
same,sensitivity to cisplatin,"[9]; 4 hours, 10-fold lower cisplatin doses, pre-treated with tetracycline and co-treated with cisplatin and tetracycline",the most sensitive to cisplatin treatment
same,sensitivity to cisplatin,"[9]; 4 hours, 10-fold lower cisplatin doses, pre-treated with tetracycline only",more sensitive to cisplatin than wild-type
same,sensitivity to cisplatin,[9]; [10],equally sensitive to cisplatin as MG1655 cells not carrying any tet genes
same,survival,[9]; [11],their survival decreased
same,survival upon exposure to cisplatin,"[9]; grown without tetracycline, cisplatin 1 hour",not different from that of MG1655 wild-type cells
same,additional decrease in survival,[9]; [12],100 fold
same,survival upon subsequent treatment with cisplatin,"[9]; tetracycline 15 μg/ml in growth medium of overnight and log phase cultures, cisplatin 1 hour",dramatic decrease in survival
same,killed more effectively than wild-type bacteria,"[9]; tetracycline-resistant bacteria grown in tetracycline, then cisplatin in the presence of tetracycline, vs wild-type or resistant bacteria not exposed to tetracycline",about 10^5 fold
